Assays:
[1] = test system: plaque-forming cells against the sheep red blood cells; experiment: Inhibitory effect on antibody production (IgM PFC against sheep red blood cells); format: in vivo, Lewis rats; conditions: 2 mg/kg
Description: A mechanism under which sphingomyelin inhibits the onset of EAE was studied. […] The spleen was excised from each rat on the 18th day, and a single cell suspension was aseptically prepared therefrom. The red blood cells were removed by a hemolysis method. After washing with an RPMI-1640 medium, a cell suspension was prepared at a cell density of […]. The number of plaque-forming cells against the sheep red blood cells was counted according to the method of Jerne and used as the number of IgM PFC. From the results shown in Table 11, it was confirmed that sphingomyelin has inhibitory activity against antibody production.

[2] = test system: SD rats; experiment: Water maze experiment (learning ability); format: in vivo; conditions: 2.0% in feed for 10 days
Description: The sphingomyelin raw material obtained in Example 1 was used to conduct a water maze experiment for the purpose of examining the influence of orally taken sphingomyelin on learned behavior. […] First, 8-week-old male SD rats (Charles River Laboratories, Japan) were preliminarily raised for 7 days using a standard diet (AIN-93G) and then divided into 3 groups each containing 6 individuals. In this context, the rats were raised under conditions involving room temperature of 24° C., humidity of 60%, and light-dark (12 hour/12 hour) control and were allowed to freely take deionized water. [table] Subsequently, a “water filled multiple T-maze” was prepared by arranging combined T-mazes with 11 choice points in a water tank of 120 cm long, 120 cm wide, and 40 cm deep. A water maze experiment was conducted at a water temperature of 23 to 24° C. according to the method of Ishizaki (Ishizaki, Exp. Anim., vol. 27, pp. 9-12, 1978). First, the rats were separately acclimatized by 5 trials in a straight waterway a day before the test. Next, each rat was given 3 trials in the water maze for 4 consecutive days of the test. The length of time taken to swim from the start to the goal of the water maze was measured.

[3] = test system: pigmentation in the back skin of the guinea pigs; experiment: Anti-pigmentation effect by oral administration (ultraviolet-irradiated skin); format: in vivo, A-1 guinea pigs
Description: Sphingomyelin was tested for its anti-pigmentation effect by oral administration. The back of female A-1 guinea pigs (body weight: approximately 400 g) was shaved and irradiated with ultraviolet rays (UVA (max. 360 nm): 30.3 kJ/m^2, UVB (max. 312 nm): 4.8 kJ/m^2) once daily for 4 days. […] The oral administration to each group was performed once daily using a sonde, and the guinea pigs were raised for 4 weeks. The sphingomyelin raw material of Example 1 was suspended in 10 g of a saline, and this suspension was orally administered to each of the groups B to D. Influence on pigmentation in the back skin of the guinea pigs in each group was measured with a colorimeter (CHROMA METER CR-200) manufactured by MINOLTA at the start of sample administration and at the completion of sample administration. A lightness recovery rate from the start of sample administration was calculated.

[4] = test system: carrageenin-induced edema; experiment: Carrageenin-induced footpad edema method; format: in vivo, Wistar rats; conditions: 100 mg/kg oral; 5 hours after λ-carrageenin injection
Description: The anti-inflammatory effect of sphingomyelin was tested by a carrageenin-induced footpad edema method. Specifically, a test subject shown in Table 15 was suspended in an aqueous solution containing 0.5% carboxymethylcellulose and orally administered (100 mg/kg) to male Wistar rats (body weight: 110 to 130 g, 8 individuals per group) according to the method of Winter et al. (Proceedings of the Society for Experimental Biology & Medicine, vol. 111, pp. 554, 1962). […] An aqueous solution containing 0.5% carboxymethylcellulose and no test substance was administered to rats in a control group. A rate of increase in footpad volume (V0) attributed to the injection of λ-carrageenin was measured in the control group in the same way as above. An carrageenin-induced edema inhibition rate (%) was calculated according to the calculation formula: (V0−V1)×100/V0 and used as the anti-inflammatory activity of the test substance. A higher value of this inhibition rate indicates higher anti-inflammatory activity.

[5] = test system: lymphocytes from human milk; experiment: Test on promotion of secretory IgA production; format: cell-based; conditions: 3 μg added to 3 ml Petri dish; after 7 days
Description: 5 ml of aseptically collected human milk was diluted twice with a 10 mM phosphate-buffered saline (PBS, pH 7.2) containing 150 mM NaCl and then layered in a test tube containing 5 ml of a separation solution (mixed solution of 33.4% Conray 400 (manufactured by Daiichi Pharmaceutical Co., Ltd.) and 9% Ficoll (manufactured by Pharmacia) at a ratio of 5:12). After centrifugation at 400×G for 30 minutes, the intermediate layer in which lymphocytes were gathered was collected with a Pasteur pipette. The lymphocytes were dispersed and washed in 10 ml of PBS and then centrifuged at 150×G for 10 minutes. This washing procedure was repeated three times. Then, 12 ml of an RPMI-1640 medium containing insulin (10 μg/ml) and transferrin (5 μg/ml) was added thereto, and the mixture was dispensed in an amount of 3 ml/Petri dish into 3 Petri dishes (A; […]

[6] = test system: sialomucin content in the saliva; experiment: Effect of promoting sialomucin secretion: sialomucin content in rat saliva; format: in vivo, SD rats; conditions: 7th day of experimental diet containing 1% of the substance
Description: Seven-week-old male SD rats (manufactured by Charles River Laboratories, Japan, Inc) were raised under conditions involving humidity of 60%, room temperature of 24° C., and light-dark (12 hour/12 hour) control. All the rats were preliminarily raised for 1 week with a standard diet and then divided into 3 groups each containing 12 individuals. These groups were allowed to freely take their respective experimental diets and raised for 1 week. Rat saliva was collected on the 7th day after the administration of experimental diets. A sialomucin content in the saliva was measured by high-performance liquid chromatography. […] In this context, a sialomucin content in the saliva was measured by the following method: 0.2 ml of a Nembutal solution was intramuscularly injected to rats fasted for 2 hours or longer. After anesthesia, a solution of pilocarpine hydrochloride serving as a saliva secretion promoter was intramuscularly injected thereto. […] A sialomucin content in the sialomucin fraction was quantified with a Sialic Acid Fluorescence Labeling Kit (Takara Bio Inc.). […] Free N-acetyl sialic acid or O-acetylated sialic acid was reacted at 55° C. for 2.5 hours by the addition of a DMB reagent as a fluorescence labeling agent and then quantified by high-performance liquid chromatography.

sphingomyelin
Average IgM/10^3 spl with respect to saline-administered control group defined as 100% [1]: 20%
Average IgM/10^3 spl ([1]; spleen cells on the 18th day, saline 138): 27
Length of time taken to swim to goal ([2]; 1st day): 33 ± 10 s
Length of time taken to swim to goal ([2]; 2nd day): 25 ± 6 s
Length of time taken to swim to goal ([2]; 3rd day): 18 ± 5 s
Length of time taken to swim to goal ([2]; 4th day): 17 ± 6 s
Lightness recovery rate ([3]; 2 mg/kg oral once daily for 4 weeks (group B), group A 31): 48%
Lightness recovery rate ([3]; 5 mg/kg oral once daily for 4 weeks (group C)): 62%
Lightness recovery rate ([3]; 10 mg/kg oral once daily for 4 weeks (group D)): 78%
lightness recovery rate relative to that in the group A ([3]; groups B to D versus saline group A, 4-week oral administration): up to 2.5 times
Inhibition rate [4]: 40.2%
IgA content in the culture solution [5]: 3.11 µg/mL
Sialomucin content [6]: 25.2 ± 2.9 µg/µL

Reference: US8486916B2, “Medicine, food and drink or feed containing sphingomyelin” (Megmilk Snow Brand Co., Ltd., priority 2005, dated 2013)
